Data on 11 compounds can be found in EP3409278B1, “HETEROCYCLIC PROTEIN KINASE INHIBITORS” (Tolero Pharmaceuticals, Inc., priority 2011, dated 2013).

A word on the IC50: it is the midpoint of a concentration-inhibition curve.

Like-named read-outs stand apart in the source and are kept apart here.

The subject of one data set is MV-4-11. Description: In vitro viability assay, MV-4-11. The class given is cell-based. The method, then: (§1) Adherent or suspension cancer cell lines were seeded at 2000-5000 cells/well in a 96-well plate, or 1000-2000 cells/well in a 384-well plate. Suspension cells were treated with drug the same day as seeding, while adherent cells were incubated overnight at 37°Cin 5% CO2 prior to drug treatment. All cells were treated for 72 hours, then lysed with ATPlite (Perkin Elmer) and measured on an Envision microplate reader. IC50 values were determined using GraphPad Prism software.
(§2) Over 35 cell lines were tested, and the most sensitive cell lines from various indications were selected and verified by multiple EC50 determinations (Figure 6). […] Antiproliferative activity using PIM-2 shRNA against FLT3-ITD driven leukemia lines has been observed (Adam (2006) Cancer Res 66:3828-35 data not shown).

For a further data set, the system named is MOLM-13. Description: In vitro viability assay, MOLM-13. Type of data set: cell-based. The method, then: as §1, §2
The target of a further data set is hERG (Homo sapiens, UniProt Q12809). Kind of data set: hERG Fast Patch assay (WuXiApptec). (The hERG channel carries a current that helps repolarise heart muscle cells.)
Chain of hERG (Q12809 whole entry): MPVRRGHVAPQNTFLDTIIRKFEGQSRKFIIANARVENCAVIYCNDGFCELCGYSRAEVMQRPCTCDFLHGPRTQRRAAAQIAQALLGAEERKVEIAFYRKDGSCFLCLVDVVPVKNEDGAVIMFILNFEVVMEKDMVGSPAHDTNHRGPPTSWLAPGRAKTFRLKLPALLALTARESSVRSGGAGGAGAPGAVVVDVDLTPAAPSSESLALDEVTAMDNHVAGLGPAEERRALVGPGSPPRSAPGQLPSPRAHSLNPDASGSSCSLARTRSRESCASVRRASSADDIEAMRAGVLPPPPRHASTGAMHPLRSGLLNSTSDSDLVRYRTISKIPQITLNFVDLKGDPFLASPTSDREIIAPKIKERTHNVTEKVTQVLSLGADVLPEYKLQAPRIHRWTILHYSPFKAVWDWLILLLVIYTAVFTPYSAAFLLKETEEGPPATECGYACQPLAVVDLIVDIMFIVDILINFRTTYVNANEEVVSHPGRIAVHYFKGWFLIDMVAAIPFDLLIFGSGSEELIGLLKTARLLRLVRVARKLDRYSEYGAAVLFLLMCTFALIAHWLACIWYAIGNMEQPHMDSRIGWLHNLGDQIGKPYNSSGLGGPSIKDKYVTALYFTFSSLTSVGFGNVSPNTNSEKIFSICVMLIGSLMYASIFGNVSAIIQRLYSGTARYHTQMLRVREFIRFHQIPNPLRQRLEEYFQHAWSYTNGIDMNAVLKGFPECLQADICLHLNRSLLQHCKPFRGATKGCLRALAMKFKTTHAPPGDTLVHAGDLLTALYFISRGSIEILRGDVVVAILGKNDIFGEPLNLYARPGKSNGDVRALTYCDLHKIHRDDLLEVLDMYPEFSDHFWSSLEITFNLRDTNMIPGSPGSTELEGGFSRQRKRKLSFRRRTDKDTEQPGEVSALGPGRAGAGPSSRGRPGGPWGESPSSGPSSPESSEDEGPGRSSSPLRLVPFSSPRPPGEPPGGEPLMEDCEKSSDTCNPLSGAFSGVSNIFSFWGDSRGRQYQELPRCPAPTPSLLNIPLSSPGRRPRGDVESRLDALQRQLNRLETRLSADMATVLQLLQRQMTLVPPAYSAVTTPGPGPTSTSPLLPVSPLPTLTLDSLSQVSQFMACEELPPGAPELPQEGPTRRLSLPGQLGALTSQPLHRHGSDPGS
Another data set has as its system PC-3. Description: Established PC-3 mouse xenograft tumors. Type of data set: in vivo. An excerpt:
(§3) Male and female Nu/Nu mice were purchased from Harlan Sprague Dawley (Indianapolis, IN). Female Nu/Nu mice were used for all xenograft evaluations with the exception of the PC-3 xenografts where male Nu/Nu mice were used. Cell lines were expanded In vitro in complete media, and if adherent were harvested by trypsin-EDTA, centrifuged and resuspended in PBS 1:1 with Matrigel (BD Bioscienes). Cells were inoculated subcutaneously in the right hind flank of mice. When tumors reached 100-200 mm^3 by caliper measurement, mice were randomized and dosing of SGI-9481 or vehicle control began and continued every day for 5 days (QDx5) with 2 days off for 18-21 days. Tumor volumes and body weights were determined twice a week, and tumor weights were measured at the completion of the translational xenograft studies.

The test system of a further data set is 22RV1/PIM-1. Description: 22RV1/PIM-1 over-expression tumor xenograft. The class given is in vivo, mouse.
From the text: as §3
(§4) . The prostate cancer cell line 22RV1 engineered to over-express PIM-1 as previously described (Mumenthaler, et al, Mol. Cancer Ther., 2009, 8(10)2882-93) was evaluated in vivo. A second model engineered to over-express PIM-2 was established using the NIH-3T3 mouse fibroblast cell line. […]. […].

Data set [1] relates to phosphatidyl inositol-3-kinase (PI3K) family. Kind of data set: Selectivity study. Type of data set: biochemical. As to conditions: data not given.
In the next data set the test system is PC-3 cells. Kind of data set: Colony formation assay, PC-3. Type of data set: cell-based. As to the method:
(§5) For shRNA growth experiments, 500 UM-UC-3 cells were seeded in a 12-well plate 48 hours post-transduction and cultured for 8-10 days at 37°C in 5% CO2. Cells were fixed with 4% paraformaldehyde in PBS, washed twice with PBS, and stained with a crystal violet solution (1% crystal violet, 10% ethanol in water). Stained cells were washed thrice with water, and imaged after drying on a GelCount colony counter (Oxford Optronix Ltd., Oxford, UK). Total staining intensity per well was determined by lysis of cells with 200 µl of Triton X-100 lysis buffer (1% Triton X-100, 50 mM Tris-HCl pH 7.4, 150 mM NaCl, 1 mM EDTA). Lysates (100 µl) from each well were transferred to a clear 96-well plate and absorbance at 560 nm was determined on an Envision microplate reader. IC50 values were determined using GraphPad Prism software. For compound treated PC-3 and UM-UC-3, cells were seeded and stained as above, but were incubated with various concentrations of test compound or DMSO one day after seeding.
(§6) Translational models were also explored for PIM dependency using shRNA knockdown. The UM-UC-3 urinary epithelial bladder carcinoma cell line was used to verify and validate dependency on PIM-1 for growth.

The next data set has as its system NIH-3T3/PIM-2. Description: NIH-3T3/PIM-2 over-expression tumor xenograft. The class given is in vivo, mouse.
From the text: as §3, §4

For data set [2], the system named is ML-2 cells (wild-type FLT3). Kind of data set: ML-2 mouse xenograft study. As to conditions: ML-2 xenografts (wild-type FLT3). The class given is in vivo.
From the text: as §3

The test system of a further data set is UM-UC-3. Kind of data set: Established UM-UC-3 mouse xenograft tumors. The class given is in vivo.
From the text: as §3

The test system of the next data set is MV-4-11 (FLT3-ITD). Description: MV-4-11 mouse xenograft study. Type of data set: in vivo. As to conditions: MV-4-11 xenografts (FLT3-ITD).
From the text: as §3

In the next data set the test system is UM-UC-3 cells. Kind of data set: Colony formation assay, UM-UC-3. The class given is cell-based. The method, then:
as §5, §6

For a further data set, the target named is Pim-1 kinase (Homo sapiens, UniProt P11309). Description: Pim-1 kinase inhibition assay (Promega Kinase-Glo). Type of data set: biochemical. From the text: One illustrative manner in which Pim-1 kinase activity can be determined is by quantifying the amount of ATP remaining in solution after an in vitro Pim-1 kinase reaction. The Kinase-Glo Assay Kit (Promega, Inc., Madison, WI) allows this. The amount of ATP remaining in the solution after the kinase reaction serves as a substrate for the luciferase to catalyze luciferin to oxyluciferin plus one photon of light. Thus, the luminescent signal read by the Luminoskan Ascent Instrument (Thermo Electron Corp., Milford, MA) correlates with the amount of ATP present after the kinase reaction and inversely correlates with the amount of kinase acitivity. […] These assays are set up in duplicate 50ul volumes in white, flat bottom 96 well plates. […] This solution is incubated at 30 degrees Celsius at 360rpm for two hours. Following the incubation, 50ul of Kinase-Glo reagent is added to each well, including all positive and negative control wells, and incubated at room temperature for 15 minutes. […] The IC50 values can then be calculated for each inhibitor tested.
Chain of Pim-1 kinase (P11309 whole entry): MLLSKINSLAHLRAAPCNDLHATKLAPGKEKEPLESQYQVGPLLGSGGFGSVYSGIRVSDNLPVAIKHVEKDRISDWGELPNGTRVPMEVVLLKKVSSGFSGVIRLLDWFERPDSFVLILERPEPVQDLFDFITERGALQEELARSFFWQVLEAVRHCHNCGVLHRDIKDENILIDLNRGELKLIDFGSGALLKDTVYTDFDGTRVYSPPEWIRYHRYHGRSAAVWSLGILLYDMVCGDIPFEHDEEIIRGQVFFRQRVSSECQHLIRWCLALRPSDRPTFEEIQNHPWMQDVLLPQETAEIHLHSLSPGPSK
For orientation: Kinase-Glo reads ATP consumption through a luciferase reaction.

Where [3] appears, read: 125 mg/kg, less than with 200 mg/kg.
Where [4] appears, read: Table IV, Kinase-Glo, 10uM ATP, read-out: IC50 on Pim1.

`CC(C)(O)[C@H]1CC[C@H](Nc2ccc3ncc(-c4cccc(C(F)(F)F)c4)n3n2)CC1` [SGI-9481]: the “sensitivity in viability assay” value with MV-4-11 and in the data set with MOLM-13 was “particularly sensitive” throughout.
With `C[C@]1(O)CC[C@H](Nc2ccc3ncc(-c4cccc(OC(F)(F)F)c4)n3n2)CC1` [8-9, 1-Methyl-4-((3-(3-(trifluoromethoxy)phenyl)imidazo[1,2-b]pyridazin-6-yl)amino)-trans-cyclohexanol], the IC50 at hERG is 26000 nM.
`CC(C)(O)[C@H]1CC[C@H](Nc2ccc3ncc(-c4cccc(C(F)(F)F)c4)n3n2)CC1` [8-31]: the tumor growth inhibition result (with PC-3 (setting [3]); in [2]; in the data set on UM-UC-3 (setting [3])) was “significant tumor growth inhibition” in each case. The “plasma and tumor tissue levels” value with PC-3 (PC-3 tumor-burdened mice, 200 mg/kg) is recorded as “above the in vitro proliferation EC50”. For the same compound, the “body weight or gross adverse toxicity” value with PC-3 (oral dosing of 200 mg/kg) and in the data set on UM-UC-3 (oral dosing of 200 mg/kg) was “no significant changes in body weight or gross adverse toxicity” in each case. The “tumor growth measured by volume (caliper) and by final tumor weight” value with PC-3 (oral dosing of 200 mg/kg) and in the data set on UM-UC-3 (oral dosing of 200 mg/kg) was “significantly reduced” each time. Also, the subcutaneous tumor growth result in the data set with 22RV1/PIM-1 (22RV1/PIM-1 + compound vs. 22RV1/PIM-1 + vehicle) was “significantly reduced”; in the data set on NIH-3T3/PIM-2 (NIH-3T3/PIM-2 + compound vs. NIH-3T3/PIM-2 + vehicle), “significantly inhibited”. For the same compound, the body weight result in the data set with 22RV1/PIM-1 (22RV1/PIM-1 xenograft mice) and in the data set on NIH-3T3/PIM-2 (NIH-3T3/PIM-2 xenograft mice) was “No significant changes in body weight” in each case. Also, in data set [1], the “inhibitory activity against multiple members of the PI3K family” value is “inhibitory activity”. The colony growth entry in the data set with PC-3 cells and with UM-UC-3 cells was “reduced colony growth” throughout. Further, the “effect on established xenografts” value in the data set with MV-4-11 (FLT3-ITD) is “induced regressions”.
`CO[C@H]1CC[C@H](Nc2ccn3ncc(-c4cccc(Cl)c4)c3n2)CC1` [8-64, 3-((3-Chlorophenyl)-N-4-methoxy-trans-cyclohexyl)pyrazolo[1,5-a]pyrimidin-5-amine]: the 50% inhibitory concentration (IC50) is 0.068 µM on Pim-1 kinase (setting [4]) and > 30000 nM against hERG.
On the same counts, the results for `O=S1(=O)CCC(CNc2ccc3ncc(-c4cccc(OC(F)(F)F)c4)n3n2)CC1` [8-13, 4-(((3-(3-(Trifluoromethoxy)phenyl)imidazo[1,2-b]pyridazin-6-yl)amino)methyl)tetrahydro-2H-thiopyran 1,1-dioxide] are 0.058 µM and 10000 nM.
`CC(C)(O)[C@H]1CC[C@H](Nc2ccc3ncc(-c4cccc(OC(F)(F)F)c4)n3n2)CC1` [8-10]: the IC50 on Pim-1 kinase (setting [4]) was 0.009 µM; against hERG it was > 30000 nM.
As for `OCCN1CCC(CNc2ccc3ncc(-c4cccc(OC(F)(F)F)c4)n3n2)CC1` [8-27, 2-(4-(((3-(3-(Trifluoromethoxy)phenyl)imidazo[1,2-b]pyridazin-6-yl)amino)methyl)piperidin-1-yl)ethanol], half-maximal inhibition on Pim-1 kinase (IC50) required 0.023 µM.
As for `FC(F)(F)Oc1cccc(-c2cnc3ccc(NCC4CCOCC4)nn23)c1` [8-19, N-((tetrahydro-2H-pyran-4-yl)methyl)-3-(3-(trifluoromethoxy)phenyl)imidazo[1,2-b]pyridazin-6-amine], at Pim-1 kinase (setting [4]), the IC50 amounted to 0.013 µM.
Same read-out and setting: next, `NCC1CCN(c2ccc3ncc(-c4cccc(OC(F)(F)F)c4)n3n2)C(=O)C1` (stereo not drawn) [8-24, 4-(Aminomethyl)-1-(3-(3-(trifluoromethoxy)phenyl)imidazo[1,2-b]pyridazin-6-y/)piperidin-2-one]: 0.034 µM; `NC1CCCC(Nc2ccc3ncc(-c4cccc(Cl)c4)n3n2)C1` (stereo not drawn) [8-70, N^1-(3-(3-chlorophenyl)imidazo[1,2-b]pyridazin-6-yl)cyclohexane-1,3-diamine]: 0.008 µM.
Consider `O=S1(=O)CCC(CNc2ccc3nnc(-c4cccc(C(F)(F)F)c4)n3c2)CC1` [8-111], for which the IC50 at Pim-1 kinase (Table V, cells that print µM, read-out: IC50 on Pim1) is > 30 µM.
